Laboratory results as given in patent US7041698B2, “Hepatitis C virus inhibitors” (Bristol-Myers Squibb Company, priority 2002, dated 2006).

Assays:
[1] = target: T1, HCV NS3/4A protease complex (UniProt P27958, C1454S/C1711G, species not given); assay: Recombinant HCV NS3/4A protease complex FRET peptide assay (strain not stated); assay type: biochemical; conditions: HCV NS3/4A protease enzyme assay, read-out: IC50 range
T1 construct: fused on or other part: Three-lysine solubilising tail at the C-terminus of NS4A
Description: Recombinant HCV NS3/4A Protease Complex FRET Peptide Assay
The purpose of this in vitro assay was to measure the inhibition of HCV NS3 protease complexes, derived from the BMS, H77C or J416S strains, as described below, by compounds of the present invention. This assay provides an indication of how effective compounds of the present invention would be in inhibiting HCV proteolytic activity.
Serum from an HCV-infected patient was obtained from Dr. T. Wright, San Francisco Hospital. An engineered full-length cDNA (compliment deoxyribonucleic acid) template of the HCV genome (BMS strain) was constructed from DNA fragments obtained by reverse transcription-PCR (RT-PCR) of serum RNA (ribonucleic acid) and using primers selected on the basis of homology between other genotype 1a strains. From the determination of the entire genome sequence, a genotype 1a was assigned to the HCV isolate according to the classification of Simmonds et al. (See P Simmonds, K A Rose, S Graham, S W Chan, F McOmish, B C Dow, E A Follett, P L Yap and H Marsden, J. Clin. Microbiol., 31(6), 1493–1503 (1993)). […] The infectious clones, H77C (1a genotype) and J4L6S (1b genotype) were obtained from R. Purcell (NIH) and the sequences are published in Genbank (AAB67036, see Yanagi, M., Purcell, R. H., Emerson, S. U. and Bukh, J. Proc. Natl. Acad. Sci. U.S.A. 94(16),8738–8743 (1997); AF054247, see Yanagi, M., St Claire, M., Shapiro, M., Emerson, S. U., Purcell, R. H. and Bukh, J, Virology 244 (1), 161–172. (1998)).
The BMS, H77C and J4L6S strains were used for production of recombinant NS3/4A protease complexes. DNA encoding the recombinant HCV NS3/4A protease complex (amino acids 1027 to 1711) for these strains were manipulated as described by P. Gallinari et al. (see Gallinari P, Paolini C, Brennan D, Nardi C, Steinkuhler C, De Francesco R. Biochemistry. 38(17):5620–32, (1999)). Briefly, a three-lysine solubilizing tail was added at the 3′-end of the NS4A coding region. The cysteine in the P1 position of the NS4A-NS4B cleavage site (amino acid 1711) was changed to a glycine to avoid the proteolytic cleavage of the lysine tag. Furthermore, a cysteine to serine mutation was introduced by PCR at amino acid position 1454 to prevent the autolytic cleavage in the NS3 helicase domain. The variant DNA fragment was cloned in the pET21b bacterial expression vector (Novagen) and the NS3/4A complex was expressed in Escherichia. coli strain BL21 (DE3) (Invitrogen) following the protocol described by P. Gallinari et al. (see Gallinari P, Brennan D, Nardi C, Brunetti M, Tomei L, Steinkuhler C, De Francesco R., J. Virol. 72(8):6758–69 (1998)) with modifications. Briefly, NS3/4A expression was induced with 0.5 mM Isopropyl β-D-1-thiogalactopyranoside (IPTG) for 22 hr at 20° C. A typical fermentation (10L) yielded approximately 80 g of wet cell paste. The cells were resuspended in lysis buffer (10 mL/g) consisting of 25 mM N-(2-Hydroxyethyl)Piperazine-N′-(2-Ethane Sulfonic acid) (HEPES), pH7.5, 20% glycerol, 500 mM Sodium Chloride (NaCl), 0.5% Triton-X100, 1 ug/ml lysozyme, 5 mM Magnesium Chloride (MgCl2), lug/ml Dnasel, 5 mM β-Mercaptoethanol (βME), Protease inhibitor—Ethylenediamine Tetraacetic acid (EDTA) free (Roche), homogenized and incubated for 20 mins at 4° C. The homogenate was sonicated and clarified by ultra-centrifugation at 235000 g for 1 hr at 4° C. Imidazole was added to the supernatant to a final concentration of 15 mM and the pH adjusted to 8.0. The crude protein extract was loaded on a Nickel-Nitrilotriacetic acid (Ni-NTA) column pre-equilibrated with buffer B (25 mM HEPES, pH 8.0, 20% glycerol, 500 mM NaCl, 0.5% Triton-X100, 15 mM imidazole, 5 mM βME). The sample was loaded at a flow rate of 1 mL/min. The column was washed with 15 column volumes of buffer C (same as buffer B except with 0.2% Triton-X100). The protein was eluted with 5 column volumes of buffer D (same as buffer C except with 200 mM Imidazole). […]

[2] = test system: HCV replicon in Huh7 cells; assay: HCV replicon cell-based assay; set-up: species or system HCV strain 1B; conditions: Hepatitis C virus, Huh-7, 96 h, HCV replicon, 4 days, read-out: EC50 range
Description: HCV Replicon Cell-based Assay
An HCV replicon whole cell system was established as described by Lohmann V, Komer F, Koch J, Herian U, Theilmann L, Bartenschlager R., Science 285(5424):110–3 (1999). This system enabled us to evaluate the effects of our HCV Protease compounds on HCV RNA replication. Briefly, using the HCV strain 1B sequence described in the Lohmann paper (Assession number:AJ238799), an HCV cDNA was generated encoding the 5′ internal ribosome entry site (IRES), the neomycin resistance gene, the EMCV (encephalomyocarditis viurs)-IRES and the HCV nonstructural proteins, NS3-NS5B, and 3′ non-translated region (NTR). In vitro transcripts of the cDNA were transfected into the human hepatoma cell line, Huh7. […] Resulting cell lines were characterized for positive and negative strand RNA production and protein production over time.
Huh7 cells, constitutively expressing the HCV replicon, were grown in Dulbecco's Modified Eagle Media (DMEM) containing 10% Fetal calf serum (FCS) and 1 mg/ml G418 (Gibco-BRL). Cells were seeded the night before (1.5×10^4 cells/well) in 96-well tissue-culture sterile plates. Compound and no compound controls were prepared in DMEM containing 4% FCS, 1:100 Penicillin/Streptomysin, 1:100 L-glutamine and 5% DMSO in the dilution plate (0.5% DMSO final concentration in the assay). Compound/DMSO mixes were added to the cells and incubated for 4 days at 37° C. After 4 days, plates were rinsed thoroughly with Phosphate-Buffered Saline (PBS) (3 times 150 μl). The cells were lysed with 25 μl of a lysis assay reagent containing the FRET peptide (RET S1, as described for the in vitro enzyme assay). The lysis assay reagent was made from 5× cell Luciferase cell culture lysis reagent (Promega #E153A) diluted to 1× with distilled water, NaCl added to 150 mM final, the FRET peptide diluted to 10 μM final from a 2 mM stock in 100% DMSO. The plate was then placed into the Cytofluor 4000 instrument which had been set to 340 nm excitation/490 emission, automatic mode for 21 cycles and the plate read in a kinetic mode. EC50 determinations were carried out as described for the IC50 determinations.
As a secondary assay, EC50 determinations from the replicon FRET assay were confirmed in a quantitative RNA assay. Cells were lyzed using the Rneasy kit (Qiagen). Purified total RNA was normalized using RiboGreen (Jones L J, Yue S T, Cheung C Y, Singer V L, Anal. Chem., 265(2):368–74 (1998)) and relative quantitation of HCV RNA expression assessed using the Taqman procedure (Kolykhalov A A, Mihalik K, Feinstone S M, Rice C M, Journal of Virology 74, 2046–2051 (2000)) and the Platinum Quantitative RT-PCR Thermoscript One-Step kit (Invitrogen cat # 11731-015). Briefly, RNA made to a volume of 5 μl (<1 ng) was added to a 20 μl Ready-Mix containing the following: 1.25× Thermoscript reaction mix (containing Magnesium Sulfate and 2-deoxynucleoside 5′-triphosphates (dNTPs)), 3 mM dNTPs, 200 nM forward primer (sequence: 5′-[…]-3′), 600 nM reverse primer (5′-[…]-3′), 100 nM probe (5′-6-FAM-[…]-BHQ-1-3′)(FAM: Fluorescein-aminohexyl amidite; BHQ: Black Hole Quencher), 1 μM Rbx reference dye (Invitrogen cat # 12223-012) and Thermoscript Plus Platinum Taq polymerase mixture. All primers were designed with ABI Prism 7700 software and obtained from Biosearch Technologies, Novato, Calif. Samples containing known concentrations of HCV RNA transcript were run as standards. Using the following cycling protocol (50° C., 30 min; 95° C., 5 min; 40 cycles of 95° C., 15 sec, 60° C., 1 min), HCV RNA expression was quantitated as described in the Perkin Elmer manual using the ABI Prism 7700 Sequence Detector.
The luciferase reporter assay was also used to confirm compound potency in the replicon. Utilization of a replicon luciferase reporter assay was first described by Krieger et al (Krieger N, Lohmann V, and Bartenschlager R, J. Virol. 75(10):4614–4624 (2001)). […]

## C=CC1C[C@]1(NC(=O)[C@@H]1C[C@@H](OC(=O)NCc2ccc(OC)cc2)CN1C(=O)[C@@H](NC(=O)OC(C)(C)C)C(C)(C)C)C(=O)NS(=O)(=O)C1CC1 (stereo partly drawn) [Compound 11, BocNH-P3(t-BuGly)-P2(Hyp(O—CO(NH—(4-methoxy-benzyl))))-P1(1R,2S VinylAcca)—CONHSO2Cyclopropane]
[1]
  IC50: 100 to 1000 nM
[2]
  EC50: 1000 to 10000 nM

## C=CC1C[C@]1(NC(=O)[C@@H]1C[C@@H](OC(=O)N[C@H](C(=O)OC)[C@@H](C)CC)CN1C(=O)[C@@H](NC(=O)OC(C)(C)C)C(C)(C)C)C(=O)NS(=O)(=O)C1CC1 (stereo partly drawn) [Compound 12, BocNH-P3(t-BuGly)-P2(Hyp(O—CO(NH-2-[(2S,3S)-3-methylvaleric acid methyl ester])))-P1(1R,2S VinylAcca)—CONHSO2Cyclopropane]
[1]
  IC50: 1000 to 10000 nM
[2]
  EC50: > 10000 nM

## C=CC1C[C@]1(NC(=O)[C@@H]1C[C@@H](OC(=O)N2CCCC2)CN1C(=O)[C@@H](NC(=O)OC(C)(C)C)C(C)(C)C)C(=O)NS(=O)(=O)C1CC1 (stereo partly drawn) [Compound 13, BocNH-P3(t-BuGly)-P2(Hyp(O—CO(N,N-(pyrrolidino))))-P1(1R,2S VinylAcca)—CONHSO2Cyclopropane]
[1]
  IC50: 100 to 1000 nM
[2]
  EC50: > 10000 nM

## C=CC1C[C@]1(NC(=O)[C@@H]1C[C@@H](OC(=O)N2CCCCC2)CN1C(=O)[C@@H](NC(=O)OC(C)(C)C)C(C)(C)C)C(=O)NS(=O)(=O)C1CC1 (stereo partly drawn) [Compound 14, BocNH-P3(t-BuGly)-P2(Hyp(O—CO(N,N-(piperdino))))-P1(1R,2S VinylAcca)—CONHSO2Cyclopropane]
[1]
  IC50: 100 to 1000 nM
[2]
  EC50: 1000 to 10000 nM

## C=CC1C[C@]1(NC(=O)[C@@H]1C[C@@H](OC(=O)Nc2cc([N+](=O)[O-])ccc2C)CN1C(=O)[C@@H](NC(=O)OC(C)(C)C)C(C)(C)C)C(=O)NS(=O)(=O)C1CC1 (stereo partly drawn) [Compound 15, BocNH-P3(t-BuGly)-P2(Hyp(O—CO(NH—(2-methyl-5-nitro-phenyl))))-P1(1R,2S VinylAcca)—CONHSO2Cyclopropane]
[1]
  IC50: < 100 nM
[2]
  EC50: 1000 to 10000 nM

## C=CC1C[C@]1(NC(=O)[C@@H]1C[C@@H](OC(=O)Nc2ccc(F)c(F)c2F)CN1C(=O)[C@@H](NC(=O)OC(C)(C)C)C(C)(C)C)C(=O)NS(=O)(=O)C1CC1 (stereo partly drawn) [Compound 16, BocNH-P3(t-BuGly)-P2(Hyp(O—CO(NH—(2,3,4-trifluoro-phenyl))))-P1(1R,2S VinylAcca)—CONHSO2Cyclopropane]
[1]
  IC50: 100 to 1000 nM
[2]
  EC50: 1000 to 10000 nM

## C=CC1C[C@]1(NC(=O)[C@@H]1C[C@@H](OC(=O)Nc2ccccc2C(C)(C)C)CN1C(=O)[C@@H](NC(=O)OC(C)(C)C)C(C)(C)C)C(=O)NS(=O)(=O)C1CC1 (stereo partly drawn) [Compound 17, BocNH-P3(t-BuGly)-P2(Hyp(O—CO(NH—(2-tert-butyl-phenyl))))-P1(1R,2S VinylAcca)—CONHSO2Cyclopropane]
[1]
  IC50: 100 to 1000 nM
[2]
  EC50: 1000 to 10000 nM

## C=CC1C[C@]1(NC(=O)[C@@H]1C[C@@H](OC(=O)Nc2cc(Cl)nc(Cl)c2)CN1C(=O)[C@@H](NC(=O)OC(C)(C)C)C(C)(C)C)C(=O)NS(=O)(=O)C1CC1 (stereo partly drawn) [Compound 18, BocNH-P3(t-BuGly)-P2(Hyp(O—CO(NH—(2,6-Dichloro-pyridin-4-yl))))-P1(1R,2S VinylAcca)—CONHSO2Cyclopropane]
[1]
  IC50: 100 to 1000 nM
[2]
  EC50: > 10000 nM

## C=CC1C[C@]1(NC(=O)[C@@H]1C[C@@H](OC(=O)Nc2ccccc2C(=O)OCC)CN1C(=O)[C@@H](NC(=O)OC(C)(C)C)C(C)(C)C)C(=O)NS(=O)(=O)C1CC1 (stereo partly drawn) [Compound 19, BocNH-P3(t-BuGly)-P2(Hyp(O—CO(NH—(2-benzoic acid ethyl ester))))-P1(1R,2S VinylAcca)—CONHSO2Cyclopropane]
[1]
  IC50: < 100 nM
[2]
  EC50: < 100 nM

## C=CC1C[C@]1(NC(=O)[C@@H]1C[C@@H](OC(=O)Nc2cc(Cl)ccc2C)CN1C(=O)[C@@H](NC(=O)OC(C)(C)C)C(C)(C)C)C(=O)NS(=O)(=O)C1CC1 (stereo partly drawn) [Compound 20, BocNH-P3(t-BuGly)-P(Hyp(O—CO(NH—(5-chloro-2-methyl-phenyl))))-P1(1R,2S VinylAcca)—CONHSO2Cyclopropane]
[1]
  IC50: < 100 nM
[2]
  EC50: 1000 to 10000 nM
